Legend:
[1] = test system: HEp-2; test: Antiviral activity against respiratory syncytial virus in HEp-2 human […] epithelial carcinoma cell line; assay type: functional, cell-based
[2] = test system: HEp-2; test: Cytotoxic activity against uninfected HEp-2 human […] epithelial carcinoma cell line; assay type: functional
[3] = Therapeutic index expressed as the ratio between CC50 and EC50; assay type: cell-based; settings: human, HEp-2 cells; read-out: Therapeutic index

Structure (SMILES)	EC50 [1] [nM]	CC50 [2] [nM]	selectivity ratio [3]
C=C(C)n1c(=O)n(Cc2nc3ccccc3n2CCCCCC#N)c2ccccc21	13	12300	946
N#CCCn1c(Cn2c(=O)n(-c3ccccc3)c3ccccc32)nc2ccccc21	5	87000	17400
C=C(C)n1c(=O)n(Cc2nc3ccccc3n2CCC#N)c2ccccc21	15	79600	5310
CCn1c(=O)n(Cc2nc3ccccc3n2CCO)c2ccccc21	229	64100	279
CC(=O)n1c(=O)n(Cc2nc3ccccc3n2CCC(C)C)c2ccccc21	710	116000	162
CCn1c(=O)n(Cc2nc3ccccc3n2CCCO)c2ccccc21	10	179000	17900
N#CCCn1c(Cn2c(O)nc3ccccc32)nc2ccccc21	99	> 310000	> 3130
CC(C)CCn1c(Cn2c(=O)n(Cc3ccc(C#N)cc3)c3ccccc32)nc2ccccc21	12	5590	465
N#Cc1ccc(Cn2c(=O)n(Cc3nc4ccccc4n3CCCCO)c3ccccc32)cc1	53	39200	739
C=C(C)n1c(=O)n(Cc2nc3ccccc3[nH]2)c2ccccc21	750	28400	38
C=C(C)n1c(=O)n(Cc2nc3ccccc3n2CCCCC#N)c2ccccc21	27	193000	7140
C=C(C)n1c(=O)n(Cc2nc3ccccc3n2CCC(C)C)c2ccccc21	4	24700	6180
CC(C)CCn1c(Cn2c(O)nc3ccccc32)nc2ccccc21	57	61100	1070
CC(C)CCn1c(Cn2c(=O)n(CCCC#N)c3ccccc32)nc2ccccc21	40	59600	1490
CCn1c(=O)n(Cc2nc3ccccc3n2CCCCO)c2ccccc21	14	154000	11000
CC1(CCn2c(Cn3c(=O)n(Cc4ccc(O)cc4)c4ccccc43)nc3ccccc32)N=N1	4	> 220000	> 28000
CCn1c(=O)n(Cc2nc3ccccc3n2CC(=O)c2ccccc2)c2ccccc21	112	27100	241
CC(C)CCn1c(Cn2c(=O)n(CCCCC#N)c3ccccc32)nc2ccccc21	35	15000	428
CCn1c(=O)n(Cc2nc3ccccc3n2CC(O)c2ccccc2)c2ccccc21 (stereo not given)	37	> 241000	> 6500
C=CCn1c(=O)n(Cc2nc3ccccc3n2CCC(C)C)c2ccccc21	16	12800	800
CC(C)CCn1c(Cn2c(=O)n(S(=O)(=O)N(C)C)c3ccccc32)nc2ccccc21	62	27100	437
C=C(C)n1c(=O)n(Cc2nc3ccccc3n2CCC(C)O)c2ccccc21 (stereo not given)	28	172000	6130
CC(C)n1c(=O)n(Cc2nc3ccccc3n2CCCCO)c2ccccc21	11	68300	6210
CC(C)CCn1c(Cn2c(=O)n(CC#N)c3ccccc32)nc2ccccc21	28	46800	1670
CCNC(=O)n1c(=O)n(Cc2nc3ccccc3n2CCC(C)C)c2ccccc21	52	18700	359
CC(C)CCn1c(Cn2c(=O)n(CCCCCC#N)c3ccccc32)nc2ccccc21	25	13400	536
CC(C)CCn1c(Cn2c(=O)n(C(=O)NCc3ccccc3)c3ccccc32)nc2ccccc21	86	6440	74

Structure (SMILES)	EC50 [1] [nM]	CC50 [2] [nM]	selectivity ratio [3]
CC(O)CCn1c(Cn2c(O)nc3ccccc32)nc2ccccc21 (stereo not given)	416	> 262000	> 629
C=C(C)n1c(=O)n(Cc2nc3ccccc3n2CCCCCCO)c2ccccc21	114	> 247000	> 2170
CCOC(=O)n1c(=O)n(Cc2nc3ccccc3n2CCC(C)C)c2ccccc21	298	57700	193
CCn1c(=O)n(Cc2nc3ccccc3n2CCC(C)C)c2ccccc21	11	18600	1690
CC1(CCn2c(Cn3c(=O)n(Cc4cc(I)c(O)c(I)c4)c4ccccc43)nc3ccccc32)N=N1	38	27100	713
OCCCCn1c(Cn2c(O)nc3ccccc32)nc2ccccc21	173	> 168000	> 971
CS(=O)(=O)CCCn1c(Cn2c(O)nc3ccccc32)nc2ccccc21	1490	216000	144
C=C(C)n1c(=O)n(Cc2nc3ccccc3n2CCCS(C)(=O)=O)c2ccccc21	30	123000	4110
C=C(C)n1c(=O)n(Cc2nc3ccccc3n2CCC(C)=O)c2ccccc21	5	245000	48900
C=C(C)n1c(=O)n(Cc2nc3ccccc3n2CCCCO)c2ccccc21	4	171000	42700
CC(=O)CCn1c(Cn2c(O)nc3ccccc32)nc2ccccc21	191	299000	1560
CC(C)CCn1c(Cn2c(=O)n(Cc3ccc(S(=O)(=O)N(C)C)cc3)c3ccccc32)nc2ccccc21	4	> 153000	> 38200
CC(C)CCn1c(Cn2c(=O)n(Cc3ccc(C(=O)N(C)C)cc3)c3ccccc32)nc2ccccc21	21	26600	1270
CC(C)CCn1c(Cn2c(=O)n(S(C)(=O)=O)c3ccccc32)nc2ccccc21	7	16300	2330
N#CCCCCn1c(=O)n(Cc2nc3ccccc3n2CCCC#N)c2ccccc21	25	> 242000	> 9090
CC(C)CCn1c(Cn2c(=O)n(C(N)=O)c3ccccc32)nc2ccccc21	50	134000	2670
CC(C)CCn1c(Cn2c(=O)n(S(=O)(=O)C(C)C)c3ccccc32)nc2ccccc21	65	16900	260
CS(=O)(=O)CCCn1c(Cn2c(=O)n(CCCCO)c3ccccc32)nc2ccccc21	92	> 229000	> 2490
CC(C)CCn1c(Cn2c(=O)n(C(=O)Nc3ccccc3)c3ccccc32)nc2ccccc21	41	21600	526
CC(C)n1c(=O)n(Cc2nc3ccccc3n2CCC#N)c2ccccc21	8	73500	9190
CC(C)CCn1c(Cn2c(=O)n(Cc3ccc(O)cc3)c3ccccc32)nc2ccccc21	18	59900	3330
CC(C)CCn1c(Cn2c(=O)n(Cc3ccc(S(C)(=O)=O)cc3)c3ccccc32)nc2ccccc21	9	7500	833
CS(=O)(=O)CCCn1c(Cn2c(=O)n(CCCCC#N)c3ccccc32)nc2ccccc21	71	> 214000	> 3020
CC(C)n1c(=O)n(Cc2nc3ccccc3n2CCCCCCC#N)c2ccccc21	5	> 189000	> 37800
CC(C)CCn1c(Cn2c(=O)n(Cc3cc(I)c(O)c(I)c3)c3ccccc32)nc2ccccc21	686	> 144000	> 209
C=C(C)n1c(=O)n(Cc2nc3ccccc3n2CCCC#N)c2ccccc21	5		
C=C(C)n1c(=O)n(Cc2nc3ccccc3n2CCCCCCC#N)c2ccccc21	6	36000	> 6000
